{"source": "patent US11358968B2", "about": "“Substituted epoxyeicosatrienoic acid (EET) analogs for treatment of kidney disease” (THE MEDICAL COLLEGE OF WISCONSIN, INC., priority 2017, dated 2022)", "key": {"[1]": {"assay": "Acute i.v. infusion in rats; plasma and kidney levels by LC-MS-MS", "assay_type": "in vivo, rat", "settings": "for concentration at 6 h: male, Sprague-Dawley, intravenous", "method": "For EET analog kidney-targeted delivery, we conjugated an EET analog to folic acid because there is a high concentration of folate receptors in renal tissue. The EET analog was conjugated to folic acid via a PEG-diamine linker. Next, we compared the kidney targeted EET analog, EET-FO1, to a well-studied EET analog, EET-A. EET-A or EET-FO1 was infused i.v. (10 mg/kg/hr) for 6 hours via the rat jugular vein. Plasma and kidney tissue were collected and EET-A or EET-FO1 measured by LC-MS-MS. EET-A plasma level was 1.6 ng/mL, but EET-A was undetectable in the kidney. On the other hand, EET-FO1 was 6.5 ng/mL in plasma and 26.7 ng/mL in kidney tissue. […] Experiments were conducted to compare EET-FO1 and EET-A to decrease cisplatin-induced nephrotoxicity. […] Despite it almost 2×-greater molecular weight compared with EET-A, EET-FO1 was effective in lowering BUN and NAG at 20 mg/kg/d and at a 10-fold lower dose of 2 mg/kg/d.\nAcute study: Overnight fasted (12-14 hrs) male SD rats (10 weeks old) were anesthetized with sodium pentobarbital (60 mg/kg, i.p.). After a tracheostomy, the left jugular vein was cannulated to continuously infuse vehicle or EET-A or folate conjugated EET analog at a rate of 6 ml/kg/hr for 6 hours. Plasma and kidney sample were collected at the end of the protocol, snap-frozen in liquid nitrogen and stored at −80° C. until analyzed for LC-MS. EET-A and folate conjugated EET analog solutions were prepared in 0.1% DMSO and 1% PEG-400 in saline.\nMass spectrometric analysis: Plasma and kidney levels of EET-A and folate conjugated EET-A were measured by LC-ESI-MS method. Samples were prepared from 200 μl of plasma or kidney homogenate from EET-A or folate conjugated EET-A treated rats using solid phase extraction with Varian Bond Elut® C18 column (Agilent Technologies, Santa Clara, Calif., USA). The extracted samples were stored at −80° C. before analysis. Samples were warmed to room temperature, dried in a stream of nitrogen and the residue reconstituted in 20 μL of acetonitrile, […]. Components were resolved on a 250 mm×2.0 mm Kromasil C18-column packed with 5 μm diameter particles having 100 Å pores. Gradient elution from 80% A to 10% A was used with elutant flow of 0.2 mL/min. Solvent A was water with 0.01% formic acid and solvent B was acetonitrile with 0.01% formic acid using the following profile: 20% B to 30% B in 10 min, 30% B to 60% B in 17 min, 60% B to 90% B in 28 min, hold at 100% for 7 min, then 7 min re-equilibration. MS/MS analysis was performed on an Agilent 6460 triple quadrupole mass spectrometer equipped with a Jet Stream™ interface. Precursor ion, product ion, collision energy and fragmenter voltage were optimized for each compound in negative polarity. Other parameters were as follows: drying gas flow=10 L/min at 325° C., nebulizer=20 psi, sheath gas flow=11 L/min at 325° C., capillary=3.5 kV, and nozzle=1.0 kV. Results acquired at unit-mass resolution."}, "[2]": {"settings": "earlier filings PCT/US2012/032090, US 9,422,318, US 9,127,027; cited from earlier work"}, "[3]": {"test_system": "WKY rats", "assay": "Cisplatin-induced nephrotoxicity in WKY rats (chronic study; BUN, NAG, renal histology)", "assay_type": "in vivo, rat", "settings": "for lowering BUN / lowering NAG: cisplatin-treated WKY rats", "method": "For EET analog kidney-targeted delivery, we conjugated an EET analog to folic acid because there is a high concentration of folate receptors in renal tissue. The EET analog was conjugated to folic acid via a PEG-diamine linker. Next, we compared the kidney targeted EET analog, EET-FO1, to a well-studied EET analog, EET-A. EET-A or EET-FO1 was infused i.v. (10 mg/kg/hr) for 6 hours via the rat jugular vein. Plasma and kidney tissue were collected and EET-A or EET-FO1 measured by LC-MS-MS.\nChronic study: In chronic study, male Wistar-Kyoto (WKY) rats weighing 180-200 g (Charles River, Mass., USA) were used. The rats were assigned into […] (n=4 in each group). […] While, rats of groups 2,3,4&5 were pre-treated with vehicle (20% DMSO in PEG-400 v/v), EET analog (EET analog in double distilled water) or novel folate conjugated EET analog F01 at 20 mg/kg and 2 mg/kg doses (prepared in a mixture of 20% DMSO in PEG400), respectively in osmotic mini pump (2 ML, Alzet, Cupertino, C A) for seven days. […] One day before euthanasia, the urine of each rat was collected over a 24-h period. […] A schematic of the protocol is depicted in FIG. 1.\nBiochemical analysis:The levels of blood urea nitrogen (BUN) (BioAssay Systems, Hayward, Calif., USA) and the activity of urinary N-acetyl-β-(D)-glucosaminidase (NAG) in the urine was measured by a kit from Diazyme (Diazyme Laboratories, Poway, Calif., USA)."}, "[4]": {"settings": "rat, i.v. infusion 10 mg/kg/hr for 6 hours via jugular vein, LC-MS-MS"}, "[5]": {"settings": "five days following cisplatin 7 mg/kg ip, compared with EET-A 10 mg/kg ip"}}, "note": "“Also recorded” adds a separate entry of the source. Where two headings read alike, the source gives them in different places."}
{"smiles": "CCCCCNC(=O)NCCCC/C=C\\CCCCCCC(=O)N[C@@H](CC(=O)O)C(=O)O", "note": "[EET-A, reference compound]", "values": [{"measurement": "level in kidney tissue", "setting": "[1]; [4]", "result": "undetectable; also recorded: almost un-detectable"}, {"measurement": "plasma level", "setting": "[1]; [4]", "result": 1.6, "unit": "ng/mL"}, {"measurement": "oral activity and pharmacokinetic properties", "setting": "[2]", "result": "orally active with good pharmacokinetic properties"}]}
{"smiles": "CCCCCCC(=O)N(CCCCCOc1cccc2sc(NC(=O)C(C)(C)C)nc12)C(C)C", "note": "[EET-B]", "values": [{"measurement": "oral activity and pharmacokinetic properties", "setting": "[2]", "result": "orally active with good pharmacokinetic properties"}]}
{"smiles": "CCCCCNC(=O)NCCCC/C=C\\CCCCCCC(=O)NCCOCCOCCNC(=O)CC[C@H](NC(=O)c1ccc(NCc2cnc3nc(N)[nH]c(=O)c3n2)cc1)C(=O)O", "note": "[EET-FO1]", "values": [{"measurement": "rate of reaching the plasma and the kidney, versus non-folate conjugated form", "setting": "[1]; acute i.v. study", "result": "faster rate"}, {"measurement": "plasma level of F01 compared to EET-A", "setting": "[1]; after 6-hour continuous i.v. administration of equal doses (FIG. 2)", "result": 5, "unit": "fold"}, {"measurement": "kidney targeting", "setting": "[1]; conclusion from plasma and kidney levels after 6 h i.v. infusion", "result": "targets the kidney"}, {"measurement": "concentration at 6 h", "setting": "[1]; kidney, rat, i.v. infusion 10 mg/kg/hr for 6 hours via jugular vein, LC-MS-MS, read-out: level in kidney tissue", "result": 26.7, "unit": "ng/mL"}, {"measurement": "concentration at 6 h", "setting": "[1]; plasma, rat, i.v. infusion 10 mg/kg/hr for 6 hours via jugular vein, LC-MS-MS, read-out: plasma level", "result": 6.5, "unit": "ng/mL"}, {"measurement": "lowering BUN", "setting": "[3]; 2 mg/kg/d", "result": "effective"}, {"measurement": "lowering NAG", "setting": "[3]; 2 mg/kg/d", "result": "effective"}, {"measurement": "lowering BUN", "setting": "[3]; 20 mg/kg/d", "result": "effective"}, {"measurement": "lowering NAG", "setting": "[3]; 20 mg/kg/d", "result": "effective"}, {"measurement": "decreasing BUN", "setting": "[3]; [5]", "result": "as effective as EET-A"}, {"measurement": "decreasing NAG", "setting": "[3]; [5]", "result": "as effective as EET-A"}, {"measurement": "decreasing renal histological injury", "setting": "[3]; [5]", "result": "as effective as EET-A"}, {"measurement": "kidney protective action against cisplatin nephrotoxicity compared to EET-A (from BUN and urinary NAG)", "setting": "[3]; pre-treatment, then 5 days treatment after cisplatin (FIG. 3), listed as F01", "result": "better kidney protective action; also recorded: superior kidney protective action"}]}
